The source made the active and inactive calls. The calls are words filed in the database; no cut-off is given here.

The first test has as its system Rattus norvegicus. Nature of the test: Analgesic activity in S1/S2 spinal nerve ligated rat model of neuropathic pain assessed as suppression of warm water-induced allodynia at 60 mg/kg, ip.
Conditions: not given
The class given is functional, organism-based. Set-up: dose 60 mg/kg.
Regarding `CC(CCc1ccccc1)NC(=O)/C=C\C(=O)N1CCN(C(c2ccc(F)cc2)c2ccc(F)cc2)CC1` (centres undefined), the result was Active.

The test system of another test is Rattus norvegicus. Nature of the test: Antinociceptive activity against formalin-induced pain in rat assessed as time spent in licking, shaking or biting paw in early phase at 60 ug, sc (Rvb=47.05 +/- 8.53 sec). The test is classed as functional.
Conditions: not given
As for `CC(CCc1ccccc1)NC(=O)/C=C\C(=O)N1CCN(C(c2ccc(F)cc2)c2ccc(F)cc2)CC1` (centres undefined), the Activity stood at 14.82 s.

The subject of a further test is Ileum. Nature of the test: Inhibition of bradykinin-induced Hartley guinea pig ileum contraction at 1 uM relative to control. The settings on record: Cavia porcellus. The class given is functional.
With `COc1cc(CNC(=O)CC(C)CC(=O)N2CCN(C(c3ccccc3)c3ccc(Cl)cc3)CC2)cc(OC)c1OC` (centres undefined), the inhibition (commonly the change of the read-out against control, counted positive when it falls) at 1 µM came out at 53.1%.
The same measure, in the same setting: the figure for `Cc1ccc(CNC(=O)CCC(=O)N2CCCN(C(c3ccccc3)c3ccc(Cl)cc3)CC2)cc1` (centres undefined) is 67.7%.
The same measure, in the same setting: to `Cc1ccc(CNC(=O)CC(C)(C)CC(=O)N2CCN(C(c3ccccc3)c3ccc(Cl)cc3)CC2)cc1` (centres undefined) belongs 32.9%; to `COc1ccc(CNC(=O)/C=C\C(=O)N2CCN(C(c3ccccc3)c3ccc(Cl)cc3)CC2)cc1` (centres undefined), 74.1%.
Same read-out and setting: the figure for `COc1ccc(CNC(=O)CC(C)CC(=O)N2CCCN(C(c3ccccc3)c3ccc(Cl)cc3)CC2)cc1` (centres undefined) is 78.3%.
With `Cc1ccc(CNC(=O)CCC(=O)N2CCN(C(c3ccccc3)c3ccc(Cl)cc3)CC2)cc1` (centres undefined), the inhibition at 1 µM was found to be 67.9%.
Turning to `CC(CCc1ccccc1)NC(=O)/C=C\C(=O)N1CCN(C(c2ccccc2)c2ccccc2)CC1` (centres undefined), the inhibition at 1 µM was determined as 77.5%.
The same measure, in the same setting: the figure for `O=C(/C=C\C(=O)N1CCCN(C(c2ccccc2)c2ccc(Cl)cc2)CC1)NC1CCCCC1` (centres undefined) is 66%; for `CC(CC(=O)NC1CCCCC1)CC(=O)N1CCN(C(c2ccccc2)c2ccc(Cl)cc2)CC1` (centres undefined) it is 60.8%.
Still for that read-out and setting: the figure for `COc1cc(CNC(=O)CCC(=O)N2CCN(C(c3ccccc3)c3ccc(Cl)cc3)CC2)cc(OC)c1OC` (centres undefined) is 65.2%.
On the same count and under the same terms, the figure for `CC(C)(CC(=O)NC1CCCCC1)CC(=O)N1CCN(C(c2ccccc2)c2ccc(Cl)cc2)CC1` (centres undefined) is 28%; for `Cc1ccc(CNC(=O)CC(C)CC(=O)N2CCCN(C(c3ccccc3)c3ccc(Cl)cc3)CC2)cc1` (centres undefined) it is 81.3%.
`Cc1ccc(CNC(=O)/C=C\C(=O)N2CCCN(C(c3ccccc3)c3ccc(Cl)cc3)CC2)cc1` (centres undefined) registered an inhibition at 1 µM of 79.4%.
Still for that read-out and setting: to `COc1ccc(CNC(=O)/C=C\C(=O)N2CCCN(C(c3ccccc3)c3ccc(Cl)cc3)CC2)cc1` (centres undefined) belongs 75%; to `O=C(/C=C\C(=O)N1CCN(C(c2ccc(F)cc2)c2ccc(F)cc2)CC1)NC1CCCCC1`, 65.4%.
The same measure, in the same setting: the figure for `O=C(CCC(=O)N1CCN(C(c2ccccc2)c2ccc(Cl)cc2)CC1)NC1CCCCC1` (centres undefined) is 79%; for `CC(CCc1ccccc1)NC(=O)/C=C\C(=O)N1CCCN(C(c2ccccc2)c2ccc(Cl)cc2)CC1` (centres undefined) it is 79.7%; for `Cc1ccc(CNC(=O)CC(C)CC(=O)N2CCN(C(c3ccccc3)c3ccc(Cl)cc3)CC2)cc1` (centres undefined) it is 64.8%.
On the same count and under the same terms, to `CC(CC(=O)NC1CCCCC1)CC(=O)N1CCCN(C(c2ccccc2)c2ccc(Cl)cc2)CC1` (centres undefined) belongs 80.3%; to `COc1cc(CNC(=O)CCC(=O)N2CCCN(C(c3ccccc3)c3ccc(Cl)cc3)CC2)cc(OC)c1OC` (centres undefined), 72.6%; to `N=C(N)NCCC[C@@H](N)C(=O)N[C@@H](CCCNC(=N)N)C(=O)N1CCC[C@H]1C(=O)N1C[C@H](O)C[C@H]1C(=O)NCC(=O)N[C@@H](Cc1cccs1)C(=O)N[C@@H](CO)C(=O)N1Cc2ccccc2C[C@@H]1C(=O)N1[C@H](C(=O)N[C@@H](CCCNC(=N)N)C(=O)O)C[C@@H]2CCCC[C@@H]21` [ICATIBANT], 100%.
On to `COc1ccc(CNC(=O)CCC(=O)N2CCCN(C(c3ccccc3)c3ccc(Cl)cc3)CC2)cc1` (centres undefined), for which the inhibition at 1 µM was 80.9%.
Same read-out and setting: to `O=C(/C=C\C(=O)N1CCN(C(c2ccccc2)c2ccc(Cl)cc2)CC1)NC1CCCCC1` (centres undefined) belongs 57.4%; to `CC(CC(=O)N(C)C)CC(=O)N1CCN(C(c2ccccc2)c2ccc(Cl)cc2)CC1` (centres undefined), 36%.
Take `COc1ccc(CNC(=O)/C=C\C(=O)N2CCN(C(c3ccc(F)cc3)c3ccc(F)cc3)CC2)cc1`: the inhibition at 1 µM is 79.6%.
Still for that read-out and setting: to `COc1ccc(CNC(=O)CCC(=O)N2CCN(C(c3ccccc3)c3ccc(Cl)cc3)CC2)cc1` (centres undefined) belongs 57.2%; to `COc1ccc(CNC(=O)CC(C)(C)CC(=O)N2CCN(C(c3ccccc3)c3ccc(Cl)cc3)CC2)cc1` (centres undefined), 31.6%.
On the same count and under the same terms, to `Cc1ccc(CNC(=O)/C=C\C(=O)N2CCN(C(c3ccccc3)c3ccc(Cl)cc3)CC2)cc1` (centres undefined) belongs 78.5%; to `CC(CCc1ccccc1)NC(=O)/C=C\C(=O)N1CCN(C(c2ccc(F)cc2)c2ccc(F)cc2)CC1` (centres undefined), 86.6%.
On the same count and under the same terms, the figure for `Cc1ccc(CNC(=O)/C=C\C(=O)N2CCN(C(c3ccc(F)cc3)c3ccc(F)cc3)CC2)cc1` is 84.5%; for `COc1ccc(CNC(=O)CC(C)CC(=O)N2CCN(C(c3ccccc3)c3ccc(Cl)cc3)CC2)cc1` (centres undefined) it is 64.9%; for `COc1cc(CNC(=O)CC(C)(C)CC(=O)N2CCN(C(c3ccccc3)c3ccc(Cl)cc3)CC2)cc(OC)c1OC` (centres undefined) it is 49.1%.
As to `COc1cc(CNC(=O)CC(C)CC(=O)N2CCCN(C(c3ccccc3)c3ccc(Cl)cc3)CC2)cc(OC)c1OC` (centres undefined), the inhibition at 1 µM was found to be 69.7%.
`O=C(CCC(=O)N1CCCN(C(c2ccccc2)c2ccc(Cl)cc2)CC1)NC1CCCCC1` (centres undefined) displayed an inhibition at 1 µM of 71.7%.

In another test the test system is Rattus norvegicus. Nature of the test: Analgesic activity in S1/S2 spinal nerve ligated rat model of neuropathic pain assessed as suppression of cold water-induced allodynia at 60 mg/kg, ip. The class given is functional, organism-based. Set-up: dose 60 mg/kg.
Conditions: not given
For the molecule `CC(CCc1ccccc1)NC(=O)/C=C\C(=O)N1CCN(C(c2ccc(F)cc2)c2ccc(F)cc2)CC1` (centres undefined), the result was Active.

A further test concerns Rattus norvegicus. The test can be described thus: Antinociceptive activity against formalin-induced pain in rat assessed as time spent in licking, shaking or biting paw in late phase at 60 ug, sc (Rvb=334.21 +/- 51.10 sec). The class given is functional.
Conditions: not given
Consider `CC(CCc1ccccc1)NC(=O)/C=C\C(=O)N1CCN(C(c2ccc(F)cc2)c2ccc(F)cc2)CC1` (centres undefined), for which the Activity amounted to 129.31 s.

The next test relates to Rattus norvegicus. Nature of the test: Analgesic activity in S1/S2 spinal nerve ligated rat model of neuropathic pain assessed as suppression of mechanical stimuli-induced allodynia at 60 mg/kg, ip. The test is classed as functional, organism-based.
Conditions: not given
Set-up: dose 60 mg/kg.
Regarding `CC(CCc1ccccc1)NC(=O)/C=C\C(=O)N1CCN(C(c2ccc(F)cc2)c2ccc(F)cc2)CC1` (centres undefined), the outcome was inactive.

These data come from ChEMBL document CHEMBL1157650, “Synthesis and bradykinin inhibitory activity of novel non-peptide compounds, and evaluation of in vivo analgesic activity” (2010).
